This is an account of results in US5908851A (priority 1995, dated 1999).

Test [1] concerns the target T1, recombinant matrilysin (PUMP-1) (Homo sapiens, UniProt P09237).
T1 sequence (P09237 95-267): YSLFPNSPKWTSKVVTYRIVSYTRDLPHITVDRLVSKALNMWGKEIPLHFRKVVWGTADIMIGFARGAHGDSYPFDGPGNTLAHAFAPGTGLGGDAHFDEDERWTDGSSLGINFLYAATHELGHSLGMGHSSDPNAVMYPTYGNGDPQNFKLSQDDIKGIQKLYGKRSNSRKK
Briefly: Inhibition of recombinant matrilysin (PUMP-1, MMP-7), 14C-acetylated casein. The class given is biochemical. As to conditions: 37° C., 16 hours, pH 7.6; read-out: In vitro inhibitory activity IC50, Matrilysin (MMP-7).

Test [2] has as its target T2, 72 kDa gelatinase (Homo sapiens, UniProt P08253).
T2 sequence (P08253 110-660): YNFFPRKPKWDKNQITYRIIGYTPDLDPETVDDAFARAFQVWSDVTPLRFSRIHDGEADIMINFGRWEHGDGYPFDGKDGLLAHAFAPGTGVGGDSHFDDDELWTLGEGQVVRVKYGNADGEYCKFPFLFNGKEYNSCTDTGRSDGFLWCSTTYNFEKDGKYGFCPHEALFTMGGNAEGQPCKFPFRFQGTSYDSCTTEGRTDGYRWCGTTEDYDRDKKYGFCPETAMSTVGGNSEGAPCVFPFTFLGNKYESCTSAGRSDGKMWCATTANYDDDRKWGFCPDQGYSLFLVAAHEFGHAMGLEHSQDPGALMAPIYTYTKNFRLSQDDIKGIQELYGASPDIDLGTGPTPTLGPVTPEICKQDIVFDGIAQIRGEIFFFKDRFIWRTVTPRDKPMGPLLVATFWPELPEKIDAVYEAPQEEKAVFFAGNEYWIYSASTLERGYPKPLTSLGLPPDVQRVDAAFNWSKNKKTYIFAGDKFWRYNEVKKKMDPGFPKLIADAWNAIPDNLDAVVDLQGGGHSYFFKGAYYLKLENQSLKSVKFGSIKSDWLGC
Briefly: biochemical.

Test [3] has as its target T3, stromelysin-1 (Homo sapiens, UniProt P08254). As to the kind of experiment: biochemical.
Description: (§1) The casein was acetylated ^14 C casein prepared by the method of Cawston et al. (ibid.).
The target of test [4] is T4, human fibroblast collagenase (Homo sapiens, UniProt P03956).
T4 sequence (P03956 100-469): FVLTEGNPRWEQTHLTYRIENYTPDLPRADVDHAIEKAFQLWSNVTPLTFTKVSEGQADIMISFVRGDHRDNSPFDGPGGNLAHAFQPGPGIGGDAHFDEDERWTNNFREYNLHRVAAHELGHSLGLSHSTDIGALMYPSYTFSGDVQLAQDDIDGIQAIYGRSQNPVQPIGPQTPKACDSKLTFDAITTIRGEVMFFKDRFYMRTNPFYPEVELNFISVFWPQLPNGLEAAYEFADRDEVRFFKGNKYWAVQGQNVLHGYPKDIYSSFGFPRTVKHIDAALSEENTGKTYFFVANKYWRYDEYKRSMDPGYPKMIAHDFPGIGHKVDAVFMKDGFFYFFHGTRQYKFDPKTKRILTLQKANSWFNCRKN
Briefly: Inhibition of human fibroblast collagenase (MMP-1), 14C-acetylated collagen. The class given is biochemical. To be noted: for IC50: 37° C., 16 hours, pH 7.5, read-out: In vitro inhibitory activity IC50, Fib. Collag. (MMP-1); for inhibition at 100 µM: read-out: % I (inhibition), Fib. Collag. (MMP-1).
Description: The samples were centrifuged to sediment undigested collagen, and an aliquot of the radioactive supernatant removed for assay on a scintillation counter as a measure of hydrolysis.

Test [5] addresses T2, 72 kDa gelatinase. As to conditions: read-out: In vitro inhibitory activity IC50, Gelatinase A (MMP-2); 37° C., 16 hours; enzyme from RPMI-7951 cells.
The target in test [6] is T3, stromelysin-1. As to conditions: read-out: In vitro inhibitory activity IC50, Stromelysin-1 (MMP-3); 37° C., 16 hours, pH 7.5.
Description: as §1

Where two headings read alike, the source gives them in different places.

T3 sequence (P08254 100-477, species assumed): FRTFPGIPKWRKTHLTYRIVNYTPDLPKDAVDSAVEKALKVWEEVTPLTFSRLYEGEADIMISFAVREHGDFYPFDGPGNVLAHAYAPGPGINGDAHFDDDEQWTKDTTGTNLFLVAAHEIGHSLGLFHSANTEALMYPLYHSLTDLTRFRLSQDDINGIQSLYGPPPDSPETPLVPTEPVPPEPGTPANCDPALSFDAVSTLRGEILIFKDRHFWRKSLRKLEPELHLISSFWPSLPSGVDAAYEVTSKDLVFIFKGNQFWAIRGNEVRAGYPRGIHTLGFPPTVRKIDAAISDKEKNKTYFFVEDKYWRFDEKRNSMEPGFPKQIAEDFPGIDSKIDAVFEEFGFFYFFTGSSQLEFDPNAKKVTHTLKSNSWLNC

Turning to `C=CC[C@H](C(=O)NO)[C@@H](CC(C)C)C(=O)N[C@H](C(=O)NC)C(C)(C)C` [Comparator 2, 2S-Allyl-N^4-(2,2-dimethyl-1S-methylcarbamoyl-propyl)-N^1-hydroxy-3R-isobutyl-succinamide, reference compound], the IC50 in test [1] worked out at 20 nM.

For `CC(C)C[C@@H](C(=O)N[C@H](C(=O)NC(c1ccccc1)c1ccccc1)C(C)(C)C)[C@H](O)C(=O)NO` [Example 1, N^4-[1S-(Benzhydryl-carbamoyl)-2,2-dimethyl-propyl]-2S,N^1-dihydroxy-3R-isobutyl-succinamide], the IC50 against 72 kDa gelatinase [2] came to 3000 nM; in test [1], 4 nM; against stromelysin-1 [3] it was 50 nM; in test [4], 600 nM.

`CC(C)C[C@@H](C(=O)N[C@H](C(=O)NC1c2ccccc2-c2ccccc21)C(C)(C)C)[C@H](O)C(=O)NO` [Example 2, N^4-[1S-(9H-Fluoren-9-ylcarbamoyl)-2,2-dimethyl-propyl]-2S,N^1-dihydroxy-3R-isobutyl-succinamide]: the IC50 against 72 kDa gelatinase [2] is 17000 nM; in test [1] it was 70 nM; at stromelysin-1 [3], 200 nM; in test [4], 2000 nM.

In the case of `CC(C)C[C@@H](C(=O)N[C@H](C(=O)NC(c1ccccc1)c1ccc(Cl)cc1)C(C)(C)C)[C@H](O)C(=O)NO` (stereo partly drawn) [Example 3, N^4-(1S-{[(4-Chloro-phenyl)-phenyl-methyl]-carbamoyl}-2,2-dimethyl-propyl)-2R,N^1-dihydroxy-3R-isobutyl-succinamide], the IC50 at 72 kDa gelatinase [2] was determined as 2000 nM; in test [1], 10 nM; against stromelysin-1 [3] it was 200 nM; in test [4] it was 400 nM.

With `CC(C)C[C@@H](C(=O)N[C@H](C(=O)NC(c1ccccc1)c1ccc(F)cc1)C(C)(C)C)[C@H](O)C(=O)NO` (stereo partly drawn) [Example 4, N^4-(1S-{[(4-Fluoro-phenyl)-phenyl-methyl]-carbamoyl}-2,2-dimethyl-propyl)-2S,N^1-dihydroxy-3-isobutyl-succinamide], the IC50 was determined as 500 nM against 72 kDa gelatinase [2], 9 nM in test [1], 60 nM on stromelysin-1 [3] and 400 nM in test [4].

For the compound `CC(C)C[C@@H](C(=O)N[C@H](C(=O)NC(c1ccccc1)c1ccccc1F)C(C)(C)C)[C@H](O)C(=O)NO` (stereo partly drawn) [Example 5, N^4-(1S-{[(2-Fluoro-phenyl)-phenyl-methyl]-carbamoyl}-2,2-dimethyl-propyl)-2S,N^1-dihydroxy-3R-isobutyl-succinamide], the IC50 worked out at 600 nM on 72 kDa gelatinase [2], 9 nM in test [1], 100 nM against stromelysin-1 [3] and 700 nM in test [4].

With `CC(C)C[C@@H](C(=O)N[C@H](C(=O)NC(c1ccccc1)c1ccccc1)C(C)(C)O)[C@H](O)C(=O)NO` [Example 6, N^4-[1S-(Benzhydryl-carbamoyl)-2-hydroxy-2-methyl-propyl]-2S, N^1-dihydroxy-3R-isobutyl-succinamide], the IC50 was determined as 600 nM against 72 kDa gelatinase [2], 15 nM in test [1], 200 nM on stromelysin-1 [3] and 2000 nM in test [4].

With `CO[C@H](C(=O)O)[C@@H](CC(C)C)C(=O)N[C@H](C(=O)NC(c1ccccc1)c1ccccc1)C(C)(C)O` [Example 7, N^4-[1S-(Benzhydryl-carbamoyl)-2-hydroxy-2-methyl-propylcarbamoyl]-2S-methoxy-5R-methyl-hexanoic acid], the inhibition at 100 µM came out at 50% on 72 kDa gelatinase [2] (read-out: % I (inhibition), Gelatinase A (MMP-2)) and 40% in test [4]. The compound also yielded an IC50 against stromelysin-1 [3] of 20000 nM.

Regarding `CO[C@H](C(=O)NO)[C@@H](CC(C)C)C(=O)N[C@H](C(=O)NC(c1ccccc1)c1ccccc1)C(C)(C)O` [Example 8], the IC50 came to 1000 nM at 72 kDa gelatinase [2], 9 nM in test [1], 20 nM on stromelysin-1 [3] and 700 nM in test [4].

As for `CC(C)(C)[C@H](NC(=O)[C@H](C/C=C/c1ccccc1)[C@H](O)C(=O)NO)C(=O)NC(c1ccccc1)c1ccccc1` [Example 9, N^4-[1S-(Benzhydryl-carbamoyl)-2,2-dimethyl-propyl]-2S,N^1-dihydroxy-3R-(3-phenyl-allyl)-succinamide], the IC50 amounted to 40000 nM on 72 kDa gelatinase [5], 800 nM at stromelysin-1 [6] and 500 nM in test [1]. Further, in test [4], the inhibition at 100 µM was 30%.

Regarding `CC(C)(C)[C@H](NC(=O)[C@H](CCCc1ccccc1)[C@H](O)C(=O)NO)C(=O)NC(c1ccccc1)c1ccccc1` [Example 10, N^4-[1S-(Benzhydryl-carbamoyl)-2,2-dimethyl-propyl]-2S,N^1-dihydroxy-3R-(3-phenyl-propyl)-succinamide], the IC50 in test [1] is 1000 nM; in test [4] it was 10000 nM.

For the compound `CC(C)C[C@@H](C(=O)N[C@H](C(=O)NC(c1ccccn1)c1ccccn1)C(C)(C)C)[C@H](O)C(=O)NO` [Example 11, N^4 -{1S-[(Di-pyridin-2-yl-methyl)-carbamoyl]-2,2-dimethyl-propyl}-2S,N^1-dihydroxy-3R-isobutyl-succinamide], the IC50 was 1000 nM against 72 kDa gelatinase [2], 20 nM in test [1], 200 nM on stromelysin-1 [3] and 300 nM in test [4].

As for `C=CC[C@H](C(=O)NO)[C@@H](CC(C)C)C(=O)N[C@H](C(=O)NC(c1ccccc1)c1ccccc1)C(C)(C)C` [Example 12, 2S-Allyl-N^4-[1S-(benzhydryl-carbamoyl)-2,2-dimethyl-propyl]-N^1-hydroxy-3R-isobutyl-succinamide], the IC50 came to 40000 nM against 72 kDa gelatinase [2], 30 nM in test [1], 80 nM against stromelysin-1 [3] and 800 nM in test [4].

Regarding `C=CC[C@H](C(=O)NO)[C@@H](CCCCCCCC)C(=O)N[C@H](C(=O)NC(c1ccccc1)c1ccccc1)C(C)(C)C` [Example 13, 2S-Allyl-N^4-[1S-(benzhydryl-carbamoyl)-2,2-dimethyl-propyl]-N^1-hydroxy-3R-octyl-succinamide], the IC50 turned out to be 20000 nM against 72 kDa gelatinase [2], 400 nM in test [1], 60 nM against stromelysin-1 [3] and 30000 nM in test [4].

A word on the IC50: it is the point on the concentration scale where inhibition reaches its midpoint. Usually inhibition stands for the percentage by which the read-out fell short of the control.
